For 18 molecules, EC50 and Emax results are on record in US9834542B2, “LXR modulators” (BRISTOL-MYERS SQUIBB COMPANY, priority 2013, dated 2017).

The structures appear in SMILES notation.

This test has as its target T1, LXRβ (Homo sapiens, UniProt P55055).
T1 construct: Co-transfection expression plasmids, comprising full-length LXRα (pCMX-h LXRα[…] or LXRβ (pCMX-hLXRβ)); expressed in transfected cells; host or cells: CV-1 African Green Monkey Kidney Cells
T1 sequence (P55055 1-460): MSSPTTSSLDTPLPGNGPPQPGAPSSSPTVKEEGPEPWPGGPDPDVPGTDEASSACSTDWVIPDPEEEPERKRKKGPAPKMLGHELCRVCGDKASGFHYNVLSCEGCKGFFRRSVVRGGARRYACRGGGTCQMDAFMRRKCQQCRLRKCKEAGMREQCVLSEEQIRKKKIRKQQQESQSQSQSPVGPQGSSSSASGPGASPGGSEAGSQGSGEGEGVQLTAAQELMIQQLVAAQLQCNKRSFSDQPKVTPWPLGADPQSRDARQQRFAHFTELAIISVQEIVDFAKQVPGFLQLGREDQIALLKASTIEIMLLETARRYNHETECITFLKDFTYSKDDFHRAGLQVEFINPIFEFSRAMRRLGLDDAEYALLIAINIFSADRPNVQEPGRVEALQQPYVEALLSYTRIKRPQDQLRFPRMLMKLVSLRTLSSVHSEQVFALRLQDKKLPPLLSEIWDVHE
T1 sequence (P19793 1-462 partner): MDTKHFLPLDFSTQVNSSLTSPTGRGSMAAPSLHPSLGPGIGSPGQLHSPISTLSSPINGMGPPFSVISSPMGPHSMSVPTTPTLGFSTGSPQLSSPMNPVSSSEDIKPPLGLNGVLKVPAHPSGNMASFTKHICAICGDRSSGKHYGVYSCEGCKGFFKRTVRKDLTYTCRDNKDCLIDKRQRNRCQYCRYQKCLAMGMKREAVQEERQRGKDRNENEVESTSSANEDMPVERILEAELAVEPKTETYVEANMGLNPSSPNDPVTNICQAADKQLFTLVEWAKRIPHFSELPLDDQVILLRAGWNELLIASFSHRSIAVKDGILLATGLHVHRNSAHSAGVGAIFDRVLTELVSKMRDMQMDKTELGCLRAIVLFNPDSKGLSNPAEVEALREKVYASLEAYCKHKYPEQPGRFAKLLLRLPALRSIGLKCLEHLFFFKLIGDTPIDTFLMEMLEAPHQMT
As to the kind of experiment: Co-transfection assay (LXRE luciferase reporter), LXRβ. The note with it: for EC50: CV-1 cells transfected with pCMX-hLXRβ and LXREx1-Tk-Luciferase, 20 hours incubation; for Emax: LXRβ co-transfection, relative to high control 1-(2,4-difluorobenzyl)-2-oxo-6-(4-phenoxyphenyl)-4-(trifluoromethyl)-1,2-dihydropyridine-3-carbonitrile, read-out: % Efficacy. The format is cell-based. Put shortly:
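Luciferase output from an LXRE-Tk reporter measured after 20 h, 37 °C compound exposure of transiently transfected CV-1 cells expressing human LXRβ with endogenous RXR. EC50 fitted from 11-point half-log dose responses (mean of ≥2 runs); % efficacy versus maximal response of the reference agonist.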

Consider `Cc1nc(-c2cc(-c3cccc(S(C)(=O)=O)c3)ccc2-n2cc(C(F)(F)F)nc2C)c(-c2cccnc2Cl)o1` [Example 552, 5-(2-chloropyridin-3-yl)-2-methyl-4-(4-(2-methyl-4-(trifluoromethyl)-1H-imidazol-1-yl)-3′-(methylsulfonyl)-[1,1′-biphenyl]-3-yl)oxazole], for which it took 913 nM to reach a half-maximal effect (EC50) and the Emax was found to be 82%.

On to `COCCc1nc(-c2cc(-c3cccc(S(C)(=O)=O)c3)ccc2-n2cc(C(F)(F)F)nc2C)c(-c2ccc(Cl)cc2Cl)o1` [Example 553, 5-(2,4-dichlorophenyl)-2-(2-methoxyethyl)-4-(4-(2-methyl-4-(trifluoromethyl)-1H-imidazol-1-yl)-3′-(methylsulfonyl)-[1,1′-biphenyl]-3-yl)oxazole], for which the 50% effective concentration (EC50) (in general, the midpoint of the concentration-response curve) worked out at 156 nM and the Emax is 60%.

As for `Cc1nc(C(F)(F)F)cn1-c1ccc(-c2cc(F)c(CO)c(S(C)(=O)=O)c2)cc1-c1nc(C(C)CO)oc1-c1ccc(OC(F)(F)F)cc1` (stereo not drawn) [Example 554, 2-(4-(3′-fluoro-4′-(hydroxymethyl)-4-(2-methyl-4-(trifluoromethyl)-1H-imidazol-1-yl)-5′-(methylsulfonyl)-[1,1′-biphenyl]-3-yl)-5-(4-(trifluoromethoxy)phenyl)oxazol-2-yl)propan-1-ol], the EC50 turned out to be 226 nM and the Emax is 31%.

Regarding `CCc1nc(-c2cc(-c3cccc(S(C)(=O)=O)c3)ccc2-n2cc(C(F)(F)F)nc2C)c(-c2ccc(OC(F)(F)F)cc2)o1` [Example 555, 2-ethyl-4-(4-(2-methyl-4-(trifluoromethyl)-1H-imidazol-1-yl)-3′-(methylsulfonyl)-[1,1′-biphenyl]-3-yl)-5-(4-(trifluoromethoxy)phenyl)oxazole], the half-maximal effective concentration (EC50) was found to be 18 nM and the Emax came out at 96%.

On to `CCc1nc(-c2cc(-c3cc(F)c(CO)c(S(C)(=O)=O)c3)ccc2-n2cc(C(F)(F)F)nc2C)c(-c2ccc(OC(F)(F)F)cc2)o1` [Example 556, (3′-(2-ethyl-5-(4-(trifluoromethoxy)phenyl)oxazol-4-yl)-3-fluoro-4′-(2-methyl-4-(trifluoromethyl)-1H-imidazol-1-yl)-5-(methylsulfonyl)-[1,1′-biphenyl]-4-yl)methanol], for which a half-maximal effect (EC50) was put at 13 nM and the Emax stood at 100%.

As for `CCCc1nc(-c2cc(-c3cc(F)c(CO)c(S(C)(=O)=O)c3)ccc2-n2cc(C(F)(F)F)nc2C)c(-c2ccc(OC(F)(F)F)cc2)o1` [Example 557, (3-fluoro-4′-(2-methyl-4-(trifluoromethyl)-1H-imidazol-1-yl)-5-(methylsulfonyl)-3′-(2-propyl-5-(4-(trifluoromethoxy)phenyl)oxazol-4-yl)-[1,1′-biphenyl]-4-yl)methanol], the 50% effective concentration (EC50) was 14 nM and the Emax was 82%.

As for `CCCc1nc(-c2cc(-c3ccc(CO)c(S(C)(=O)=O)c3)ccc2-n2cc(C(F)(F)F)nc2C)c(-c2ccc(OC(F)(F)F)cc2)o1` [Example 558, (4′-(2-methyl-4-(trifluoromethyl)-1H-imidazol-1-yl)-3-(methylsulfonyl)-3′-(2-propyl-5-(4-(trifluoromethoxy)phenyl)oxazol-4-yl)-[1,1′-biphenyl]-4-yl)methanol], the response was half-maximal at 10 nM (EC50) and the Emax is 82%.

Consider `Cc1nc(C(F)(F)F)cn1-c1ccc(-c2cccc(S(C)(=O)=O)c2)cc1-c1nc(C(C)C)oc1-c1ccc(OC(F)(F)F)cc1` [Example 559, 2-isopropyl-4-(4-(2-methyl-4-(trifluoromethyl)-1H-imidazol-1-yl)-3′-(methylsulfonyl)-[1,1′-biphenyl]-3-yl)-5-(4-(trifluoromethoxy)phenyl)oxazole], for which the concentration giving a half-maximal response (EC50) was determined as 34 nM and the Emax was found to be 76%.

With `Cc1nc(C(F)(F)F)cn1-c1ccc(-c2cc(F)c(CO)c(S(C)(=O)=O)c2)cc1-c1nc(C(C)C)oc1-c1ccc(OC(F)(F)F)cc1` [Example 560, (3-fluoro-3′-(2-isopropyl-5-(4-(trifluoromethoxy)phenyl)oxazol-4-yl)-4′-(2-methyl-4-(trifluoromethyl)-1H-imidazol-1-yl)-5-(methylsulfonyl)-[1,1′-biphenyl]-4-yl)methanol], the response was half-maximal at 16 nM (EC50) and the Emax was 75%.

With `Cc1nc(C(F)(F)F)cn1-c1ccc(-c2cc(F)c(CO)c(S(C)(=O)=O)c2)cc1-c1nc(CC(C)C)oc1-c1ccc(OC(F)(F)F)cc1` [Example 561, (3-fluoro-3′-(2-isobutyl-5-(4-(trifluoromethoxy)phenyl)oxazol-4-yl)-4′-(2-methyl-4-(trifluoromethyl)-1H-imidazol-1-yl)-5-(methylsulfonyl)-[1,1′-biphenyl]-4-yl)methanol], it took 13 nM to reach a half-maximal effect (EC50) and the Emax is 71%.

On to `Cc1nc(C(F)(F)F)cn1-c1ccc(-c2cccc(S(C)(=O)=O)c2)cc1-c1nc(CC(C)C)oc1-c1ccc(OC(F)(F)F)cc1` [Example 562, 2-isobutyl-4-(4-(2-methyl-4-(trifluoromethyl)-1H-imidazol-1-yl)-3′-(methylsulfonyl)-[1,1′-biphenyl]-3-yl)-5-(4-(trifluoromethoxy)phenyl)oxazole], for which the EC50 was found to be 34 nM and the Emax stood at 77%.

For the molecule `Cc1nc(C(F)(F)F)cn1-c1ccc(-c2ccc(CO)c(S(C)(=O)=O)c2)cc1-c1nc(CC(C)C)oc1-c1ccc(OC(F)(F)F)cc1` [Example 563, (3′-(2-isobutyl-5-(4-(trifluoromethoxy)phenyl)oxazol-4-yl)-4′-(2-methyl-4-(trifluoromethyl)-1H-imidazol-1-yl)-3-(methylsulfonyl)-[1,1′-biphenyl]-4-yl)methanol], the EC50 is 13 nM and the Emax is 70%.

In the case of `COCCc1nc(-c2cc(-c3cccc(S(C)(=O)=O)c3)ccc2-n2cc(C(F)(F)F)nc2C)c(-c2ccc(OC(F)(F)F)cc2)o1` [Example 564, 2-(2-methoxyethyl)-4-(4-(2-methyl-4-(trifluoromethyl)-1H-imidazol-1-yl)-3′-(methylsulfonyl)-[1,1′-biphenyl]-3-yl)-5-(4-(trifluoromethoxy)phenyl)oxazole], the EC50 was found to be 164 nM and the Emax came to 57%.

As for `Cc1nc(C(F)(F)F)cn1-c1ccc(-c2cccc(S(C)(=O)=O)c2)cc1-c1nc(C(C)CO)oc1-c1ccc(OC(F)(F)F)cc1` (stereo not drawn) [Example 565, 2-(4-(4-(2-methyl-4-(trifluoromethyl)-1H-imidazol-1-yl)-3′-(methylsulfonyl)-[1,1′-biphenyl]-3-yl)-5-(4-(trifluoromethoxy)phenyl)oxazol-2-yl)propan-1-ol], a half-maximal effect (EC50) was put at 354 nM and the Emax amounted to 30%.

For the molecule `Cc1nc(-c2cc(-c3cccc(S(C)(=O)=O)c3)ccc2-n2cc(C(F)(F)F)nc2C)c(-c2ccc(Cl)nc2Cl)o1` [Example 566, 5-(2,6-dichloropyridin-3-yl)-2-methyl-4-(4-(2-methyl-4-(trifluoromethyl)-1H-imidazol-1-yl)-3′-(methylsulfonyl)-[1,1′-biphenyl]-3-yl)oxazole], a half-maximal effect (EC50) was put at 227 nM and the Emax came to 94%.

Regarding `Cc1nc(-c2cc(-c3cc(F)c(CO)c(S(C)(=O)=O)c3)ccc2-n2cc(C(F)(F)F)nc2C)c(-c2ccc(Cl)nc2Cl)o1` [Example 567, (3′-(5-(2,6-dichloropyridin-3-yl)-2-methyloxazol-4-yl)-3-fluoro-4′-(2-methyl-4-(trifluoromethyl)-1H-imidazol-1-yl)-5-(methylsulfonyl)-[1,1′-biphenyl]-4-yl)methanol], a half-maximal effect (EC50) was put at 111 nM and the Emax was found to be 93%.

`Cc1nc(-c2cc(-c3cc(F)c(CO)c(S(C)(=O)=O)c3)ccc2-n2cc(C(F)(F)F)nc2C)c(-c2ccc(C(F)(F)F)nc2)o1` [Example 568, (3-fluoro-4′-(2-methyl-4-(trifluoromethyl)-1H-imidazol-1-yl)-3′-(2-methyl-5-(6-(trifluoromethyl)pyridin-3-yl)oxazol-4-yl)-5-(methylsulfonyl)-[1,1′-biphenyl]-4-yl)methanol]: the concentration for a half-maximal effect (EC50) was found to be 552 nM and the Emax was found to be 68%.

`COc1ccc(-c2oc(C)nc2-c2cc(-c3cccc(S(C)(=O)=O)c3)ccc2-n2cc(C(F)(F)F)nc2C)cn1` [Example 569, 5-(6-methoxypyridin-3-yl)-2-methyl-4-(4-(2-methyl-4-(trifluoromethyl)-1H-imidazol-1-yl)-3′-(methylsulfonyl)-[1,1′-biphenyl]-3-yl)oxazole]: the EC50 was 214 nM and the Emax came out at 90%.
